Experimental data as given in PMC9249674, “A small-molecule Skp1 inhibitor elicits cell death by p53-dependent mechanism” (iScience, 2022).
Like-named read-outs stand apart in the source and are kept apart here.

Legend:
Skp1-ΔF-box complex = experiment: LC-MS/MS analysis of in vitro binding; details: overnight incubation
A549 cells = experiment: Cell viability assay (Cell-Titer GLO); assay type: cell-based, human; details: for EC50: Homo sapiens
Protocol: The media was according to culture conditions of each individual cell line (mentioned above). After 12 hrs, compounds were added in a total volume of 5 μL of media (two-fold diluted) to each well with final concentrations from 5 nM to 30 μM. The measurements were conducted 48 hrs after seeding of the cells. Then, 25 μL of Cell-Titer GLO reagent (Promega) was added, and luminescence was measured on an EnSpire multimode plate reader (PerkinElmer), according to the manufacturer’s instructions. The estimated in vitro half-maximal inhibitory concentration (EC50) values were calculated using GraphPad Prism® v6.0 (San Diego, CA) software. The cell viability for A549 cells was also performed for 72- and 96-hrs by using the same experimental conditions as described above.

Skp1 (Q97A) = target: T1, Skp1 (Q97A) (Homo sapiens, UniProt P63208, Q97A); experiment: SPRi assay, Skp1 mutant; assay type: binding
T1 construct: His6; made in house; host or cells: Escherichia coli BL21 (DE3)
Protocol: (§1) Freshly deposited gold coated standard SPRi chips/slides (Plexera, LLC) were cleaned, and compound(s) at 10 mM concentration in 100% DMSO were spotted on the chips using a micropipette. After this, the slides were left for complete evaporation of DMSO (under vacuum) at room temperature for 2 hrs. After printing, the slides were exposed to UV irradiation 2.4 J/cm^2 (365 nm) in a UV chamber (Amersham life science). The slides were subsequently washed with DMSO, ethanol, and finally with distilled water for 15 minutes (ultrasonically), respectively, to remove non-covalently bound compounds. After drying with nitrogen, the slides were assembled with flow cell and then mounted on SPRi instrument for measurement, or stored at 4°C to be used for later experiments.
(§2) All the experiments were carried out using the PlexArray® HT system (Plexera, LLC), which is based on surface plasmon resonance imaging. Oval regions of interests (ROIs) were set as 9 pixels × 7 pixels area in imaging area. ROIs of vehicle (DMSO) were used as controls for measurement of specific signals. All samples were injected with an association and dissociation flow rate of 3 μL s^−1 and at 25°C. A 1:3 mixture of glycine. HCL (pH 4.2) and 0.5% (v/v) SDS, respectively, was used to regenerate the surface and remove bound proteins from the small molecules enabling the sensor chip to be reused for additional analyte injections.
(§3) The Tris buffer (10 mM Tris-HCl pH 8.0, 100 mM NaCl), without any reducing agent, was used as both analyte and running buffer. Purified recombinant proteins, including Skp1^WT, ΔSkp1^1−140, and any of the desired mutant(s), were in the Tris buffer (10 mM Tris-HCl pH 8.0, 100 mM NaCl). For testing the compound(s), multiple concentrations (0.5 μM, 1 μM, 4 μM and 8 μM) of Skp1^WT or ΔSkp1^1−140 were flowed on the SPRi instrument as analyte to get accurate kinetic parameters. A typical sample injection cycle consists of 300 seconds association phase with the analyte solution and 400 seconds dissociation phase with running buffer at 3 μL s^−1 flow rate. Other purified proteins such as mutant forms of Skp1 were tested to confirm binding pocket specificity. The highest concentration tested for each protein was 8 μM. For data analysis, we choose two software packages, ORIGIN Lab and Data Analysis Module (DAM) of Plexera. All data from SPRi reported here are after subtraction of the background intensity/signal by DAM software. In short, the entire concentration of analyte was fitted with a 1:1 Langmuir interaction integrated rate equation to obtain the kinetic constants.

Skp1 (F101A) = target: T2, Skp1 (F101A) (Homo sapiens, UniProt P63208, F101A); experiment: SPRi assay, Skp1 mutant; assay type: binding
T2 construct: His6; made in house; host or cells: Escherichia coli BL21 (DE3)
Protocol: as §1, §2, §3

Skp1 (V123D) = target: T3, Skp1 (V123D) (Homo sapiens, UniProt P63208, V123D); experiment: SPRi assay, Skp1 mutant; assay type: binding
T3 construct: His6; made in house; host or cells: Escherichia coli BL21 (DE3)
Protocol: as §1, §2, §3

Skp1^F139A = target: T4, Skp1^F139A (Homo sapiens, UniProt P63208, F139A); experiment: SPRi assay, Skp1 mutant; assay type: binding
T4 construct: His6; made in house; host or cells: Escherichia coli BL21 (DE3)
Protocol: as §1, §2, §3

Skp1 (F101W_V123T) = target: T5, Skp1 (F101W_V123T) (Homo sapiens, UniProt P63208, F101W/V123T); experiment: SPRi assay, Skp1 mutant; assay type: binding
T5 construct: His6; made in house; host or cells: Escherichia coli BL21 (DE3)
Protocol: as §1, §2, §3

Skp1 (F139D) = target: T6, Skp1 (F139D) (Homo sapiens, UniProt P63208, F139D); experiment: SPRi assay, Skp1 mutant; assay type: binding
T6 construct: His6; made in house; host or cells: Escherichia coli BL21 (DE3)
Protocol: as §1, §2, §3

Skp1 (F101A_F139A) = target: T7, Skp1 (F101A_F139A) (Homo sapiens, UniProt P63208, F101A/F139A); experiment: SPRi assay, Skp1 mutant; assay type: binding
T7 construct: His6; made in house; host or cells: Escherichia coli BL21 (DE3)
Protocol: as §1, §2, §3

[1] = target: T8, Skp1 interaction with Skp2 (Homo sapiens, UniProt P63208); experiment: Cell-based FRET assay in HEK293 cells; details: 4 hrs, increasing concentrations
T8 construct: host or cells: HEK293
T8 sequence (P63208 whole entry): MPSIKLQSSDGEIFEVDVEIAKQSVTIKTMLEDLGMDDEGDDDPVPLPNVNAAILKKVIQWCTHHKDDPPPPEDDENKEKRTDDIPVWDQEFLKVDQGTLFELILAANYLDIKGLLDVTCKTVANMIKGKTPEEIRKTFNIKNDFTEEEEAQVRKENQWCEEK

T3 sequence (P63208 whole entry V123D): as the sequence (P63208 whole entry) above, with V123D counted along it
T6 sequence (P63208 whole entry F139D): as the sequence (P63208 whole entry) above, with F139D counted along it
T2 sequence (P63208 whole entry F101A): as the sequence (P63208 whole entry) above, with F101A counted along it
T4 sequence (P63208 whole entry F139A): as the sequence (P63208 whole entry) above, with F139A counted along it
T1 sequence (P63208 whole entry Q97A): as the sequence (P63208 whole entry) above, with Q97A counted along it
T5 sequence (P63208 whole entry F101W/V123T): as the sequence (P63208 whole entry) above, with F101W, V123T counted along it
T7 sequence (P63208 whole entry F101A/F139A): as the sequence (P63208 whole entry) above, with F101A, F139A counted along it

SMILES: Nc1ccc(-c2nc3ccccc3c3[nH]c4ccccc4c23)cc1 [Z0933M]
- binding by LC-MS/MS (Skp1-ΔF-box complex): robust binding
- anti-proliferative potency relative to 6-OAP (A549 cells; A549 cells, 48 h, ratio of EC50 values): approximately 24 times
- EC50 (A549 cells; A549, Lung cancer, 48 h, read-out: Anti-proliferative EC50): 580 ± 70 nM
- EC50 (A549 cells; A549 cells, 72 hrs, read-out: EC50): 99 ± 1 nM
- EC50 (A549 cells; A549 cells, 96 hrs, read-out: EC50): 66 ± 18 nM
- Kd (Skp1 (Q97A)): 477 ± 4.95 nM
- Kd (Skp1 (F101A)): 374 ± 45.6 nM
- Kd (Skp1 (V123D)): 1270 ± 95.5 nM
- Kd (Skp1^F139A): 455 ± 47.7 nM
- Kd (Skp1 (F101W_V123T)): 336 ± 36.8 nM
- Kd (Skp1 (F139D)): 1140 ± 95.5 nM
- Kd (Skp1 (F101A_F139A)): 799 ± 54.8 nM
- inhibition of Skp1-Skp2 interaction (FRET ratio) [1]: significant inhibition
